Test results: US7932255B2, “2-aminocarbonyl substituted piperazine or diaza-cyclic compounds as apoptosis protein inhibitors (lap) modulators” (Novartis AG, priority 2006, dated 2011)
Read-outs that look alike come from different tables or passages of the source. Where no end group is shown, it is not given here.

Key:
[1] = test system: GST-BIR3 fusion protein; assay: FMAT Smac peptide / GST-BIR3 competition assay; assay type: binding; conditions: competing GST-BIR3 off the FMAT beads; read-out: IC50 for non-biotinylated Smac (FMAT)
Method: In order to measure the ability of the inventive compounds to bind the BIR3 peptide binding pocket, a solution phase assay on the FMAT or ELISA technology platform is utilized.
Biotinylated Smac 7-mer peptide (AVPIAQK, lysine ε-amino group is biotinylated) is immobilized on streptavidin coated beads. GST-BIR3 fusion protein is precipitated with FMAT beads and is detected using fluorescent tagged anti-GST antibodies. […] The IC50 for non-biotinylated Smac is 400 nM.

[2] = biological target: T1, XIAP (Homo sapiens, UniProt P98170); assay: Disruption of the Smac peptide-(XIAP)BIR3 protein-protein interaction (Tables 2 and 3); assay type: binding
T1 construct: GST
T1 sequence (P98170 248-358 limits assumed, species assumed): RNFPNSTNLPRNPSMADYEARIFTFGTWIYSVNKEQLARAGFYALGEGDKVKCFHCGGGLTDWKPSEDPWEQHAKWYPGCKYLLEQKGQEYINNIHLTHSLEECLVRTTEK
In short: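 Compounds compete with immobilized Smac peptide for the XIAP BIR3 pocket. Percent inhibition at 4 concentrations (usually 3- or 10-fold series from 10 μM); IC50 by logarithmic regression, normalized to an average reference-inhibitor IC50.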

[3] = Series A compounds, Table 2, read-out: XIAP IC50
[4] = Series B compounds, Table 3, read-out: XIXP IC50

AVPIAQK [non-biotinylated Smac]
IC50 [1]: 0.4 µM

CN[C@@H](C)C(=O)N[C@H](C(=O)N1CCN(C(=O)CCOC)C[C@H]1C(=O)NC1CCCc2ccccc21)C(C)C (stereo partly drawn) [Compound 18, (S)-4-(3-Methoxy-propionyl)-1-[(S)-3-methyl-2-((S)-2-methylamino-propionylamino)-butyryl]-piperazine-2-carboxylic acid (1,2,3,4-tetrahydro-naphthalen-1-yl)-amide]
IC50 [2, 3]: < 10 µM

CN[C@@H](C)C(=O)N[C@H](C(=O)N1CCN(S(=O)(=O)C2CCCCC2)C[C@H]1C(=O)NC1CCCc2ccccc21)C(C)C (stereo partly drawn) [Compound 11, (S)-4-Cyclohexanesulfonyl-1-[(S)-3-methyl-2-((S)-2-methylamino-propionylamino)-butyryl]-piperazine-2-carboxylic acid (1,2,3,4-tetrahydro-naphthalen-1-yl)-amide]
IC50 [2, 3]: < 10 µM

CN[C@@H](C)C(=O)N[C@H](C(=O)N1CCN(Cc2ccccc2)C[C@H]1C(=O)NCc1cc(F)cc(F)c1)C(C)C [Compound 84, (S)-4-Benzyl-1-[(S)-3-methyl-2-((S)-2-methylamino-propionylamino)-butyryl]-piperazine-2-carboxylic acid 3,5-difluoro-benzylamide]
IC50 [2, 4]: < 10 µM

CN[C@@H](C)C(=O)N[C@H](C(=O)N1CCN(c2ccc(F)cc2)C[C@H]1C(=O)NC1CCCc2ccccc21)C(C)C (stereo partly drawn) [Compound 44, (S)-4-(4-Fluoro-phenyl)-1-[(S)-3-methyl-2-((S)-2-methylamino-propionylamino)-butyryl]-piperazine-2-carboxylic acid (1,2,3,4-tetrahydro-naphthalen-1-yl)-amide]
IC50 [2, 3]: < 10 µM

CN[C@@H](C)C(=O)N[C@H](C(=O)N1CCN(CC2CCCCC2)C[C@H]1C(=O)NC1CCCc2ccccc21)C(C)C (stereo partly drawn) [Compound 19, (S)-4-Cyclohexylmethyl-1-[(S)-3-methyl-2-((S)-2-methylamino-propionylamino)-butyryl]-piperazine-2-carboxylic acid (1,2,3,4-tetrahydro-naphthalen-1-yl)-amide]
IC50 [2, 3]: < 10 µM

CN[C@@H](C)C(=O)N[C@H](C(=O)N1CCN(Cc2cncs2)C[C@H]1C(=O)NC1CCCc2ccccc21)C(C)C (stereo partly drawn) [Compound 22, (S)-1-[(S)-3-Methyl-2-((S)-2-methylamino-propionylamino)-butyryl]-4-thiazol-5-ylmethyl-piperazine-2-carboxylic acid (1,2,3,4-tetrahydro-naphthalen-1-yl)-amide]
IC50 [2, 3]: < 10 µM

CN[C@@H](C)C(=O)N[C@H](C(=O)N1CCN(C(=O)NCc2ccccc2)C[C@H]1C(=O)NC1CCCc2ccccc21)C(C)C (stereo partly drawn) [Compound 5, (S)-4-[(S)-3-Methyl-2-((S)-2-methylamino-propionylamino)-butyryl]-piperazine-1,3-dicarboxylic acid 1-benzylamide 3-[(1,2,3,4-tetrahydro-naphthalen-1-yl)-amide]]
IC50 [2, 3]: < 10 µM

CN[C@@H](C)C(=O)N[C@H](C(=O)N1CCN(S(=O)(=O)CCC(F)(F)F)C[C@H]1C(=O)NC1CCCc2ccccc21)C(C)C (stereo partly drawn) [Compound 26, (S)-1-[(S)-3-Methyl-2-((S)-2-methylamino-propionylamino)-butyryl]-4-(3,3,3-trifluoro-propane-1-sulfonyl)-piperazine-2-carboxylic acid (1,2,3,4-tetrahydro-naphthalen-1-yl)-amide]
IC50 [2, 3]: < 10 µM

CN[C@@H](C)C(=O)N[C@H](C(=O)N1CCNC[C@H]1C(=O)NC1CCCc2ccccc21)C1CCCCC1 (stereo partly drawn) [Compound 59, (S)-1-[(S)-2-Cyclohexyl-2-((S)-2-methylamino-propionylamino)-acetyl]-piperazine-2-carboxylic acid (1,2,3,4-tetrahydro-naphthalen-1-yl)-amide]
IC50 [2, 3]: < 10 µM

CN[C@@H](C)C(=O)N[C@H](C(=O)N1CCN(C(=O)NC(C)(C)C)C[C@H]1C(=O)NC1CCCc2ccccc21)C(C)C (stereo partly drawn) [Compound 39, (S)-4-[(S)-3-Methyl-2-((S)-2-methylamino-propionylamino)-butyryl]-piperazine-1,3-dicarboxylic acid 1-tert-butylamide 3-[(1,2,3,4-tetrahydro-naphthalen-1-yl)-amide]]
IC50 [2, 3]: < 10 µM

CCN(C(=O)[C@@H]1CN(Cc2ccccc2)CCN1C(=O)[C@@H](NC(=O)[C@H](C)NC)C(C)C)C1CCCc2ccccc21 (stereo partly drawn) [Compound 76, (S)-4-Benzyl-1-[(S)-3-methyl-2-((S)-2-methylamino-propionylamino)-butyrl]-piperazine-2-carboxylic acid ethyl-(1,2,3,4-tetrahydro-naphthalen-1-yl)-amide]
IC50 [2, 4]: < 10 µM

CN[C@@H](C)C(=O)N[C@H](C(=O)N1CCN(Cc2ccccc2)C[C@H]1C(=O)NCCc1ccccc1F)C(C)C [Compound 67, (S)-4-Benzyl-1-[(S)-3-methyl-2-((S)-2-methylamino-propionylamino)-butyryl]-piperazine-2-carboxylic acid [2-(2-fluoro-phenyl)-ethyl]-amide]
IC50 [2, 4]: < 10 µM

CN[C@@H](C)C(=O)N[C@H](C(=O)N1CCN(Cc2ccccn2)C[C@H]1C(=O)NC1CCCc2ccccc21)C(C)C (stereo partly drawn) [Compound 49, (S)-1-[(S)-3-Methyl-2-((S)-2-methylamino-propionylamino)-butyryl]-4-pyridin-2-ylmethyl-piperazine-2-carboxylic acid (1,2,3,4-tetrahydro-naphthalen-1-yl)-amide]
IC50 [2, 3]: < 10 µM

CN[C@@H](C)C(=O)N[C@H](C(=O)N1CCN(Cc2ccccc2)C[C@H]1C(=O)NC1CCc2ccccc2C1)C(C)C (stereo partly drawn) [Compound 68, (S)-4-Benzyl-1-[(S)-3-methyl-2-((S)-2-methylamino-propionylamino)-butyryl]-piperazine-2-carboxylic acid (1,2,3,4-tetrahydro-naphthalen-2-yl)-amide]
IC50 [2, 4]: < 10 µM
